For one series, the target named is T1, human EAAT3 (Homo sapiens, UniProt P43005).
T1 construct: expressed in transfected cells
T1 sequence (P43005 1-524): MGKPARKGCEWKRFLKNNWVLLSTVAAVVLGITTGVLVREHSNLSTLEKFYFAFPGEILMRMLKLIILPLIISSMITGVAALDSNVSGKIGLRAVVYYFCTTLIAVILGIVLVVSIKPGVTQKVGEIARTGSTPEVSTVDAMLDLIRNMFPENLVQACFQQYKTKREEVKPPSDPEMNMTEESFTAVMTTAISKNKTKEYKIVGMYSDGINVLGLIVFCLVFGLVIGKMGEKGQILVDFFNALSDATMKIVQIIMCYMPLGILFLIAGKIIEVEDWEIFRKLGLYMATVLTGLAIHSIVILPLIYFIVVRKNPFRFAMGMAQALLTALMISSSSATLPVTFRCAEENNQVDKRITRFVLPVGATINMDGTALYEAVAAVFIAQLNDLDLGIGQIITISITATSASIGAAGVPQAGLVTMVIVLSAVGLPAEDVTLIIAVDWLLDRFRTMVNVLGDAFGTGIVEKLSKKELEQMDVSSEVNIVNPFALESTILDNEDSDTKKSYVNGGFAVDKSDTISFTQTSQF
Nature of the series: FLIPR Membrane Potential (FMP) assay. It is filed as cell-based. To be noted: HEK-293 cells stably expressing human EAAT3; antagonist applied 15 min before L-glutamate at EC80; Kb by Cheng-Prusoff from IC50. The gist of the method:
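HEK-293 cells stably expressing human EAAT3, loaded with membrane-potential dye 1 h at 37 °C in Krebs buffer pH 7.4. Antagonists added 15 min before L-glutamate at EC80; peak fluorescence minus basal read on FLIPR at room temperature. Kb derived from IC50 via Cheng-Prusoff.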

SMILES strings stand for the structures.

As for `CC(C)(CO)NC(=O)c1cc(-c2ccc(Cl)cc2)cc(-n2cnnn2)c1` [Example 15, 3-(4-Chlorophenyl)-N-(1-hydroxy-2-methylpropan-2-yl)-5-(tetrazol-1-yl)-benzamide], the melting point stood at 137 °C. Also, at human EAAT3, the Kb amounted to 800 nM.
The molecule `CC(C)(C)c1nnnn1-c1cc(C(=O)NC(C)(C)C2CC2)cc(-c2ccc(Cl)cc2)c1` [Example 92, 3-(5-tert-Butyltetrazol-1-yl)-5-(4-chlorophenyl)-N-(2-cyclopropylpropan-2-yl)-benzamide] came in with a melting point of 101 °C. This molecule also gave an antagonist equilibrium constant (Kb) on human EAAT3 of 300 nM.
Regarding `Cc1ccc(-c2cc(C(=O)NC(C)(C)C(F)(F)F)cc(-n3nnnc3C3CC3)c2)cc1` [Example 25, 3-(5-Cyclopropyltetrazol-1-yl)-5-(4-methylphenyl)-N-(1,1,1-trifluoro-2-methylpropan-2-yl)-benzamide], the melting point was found to be 82 °C. Besides, the Kb on human EAAT3 was found to be 270 nM.
Taken in the same sequence, the figures for `CC(C)c1nnnn1-c1cc(C(=O)NC(C)(C)C)cc(-c2ccc(Cl)cc2)c1` [Example 43, N-tert-Butyl-3-(4-chlorophenyl)-5-(5-propan-2-yltetrazol-1-yl)-benzamide] were 90 °C and 89 nM.
The molecule `CC(C)(C)NC(=O)c1cc(-c2ccc(Cl)cc2)cc(-n2nnnc2C(C)(C)C)c1` [Example 91, N-tert-Butyl-3-(5-tert-butyltetrazol-1-yl)-5-(4-chlorophenyl)-benzamide] displayed a melting point of 230.5 °C. Moreover, the Kb on human EAAT3 came to 87 nM.
The corresponding values for `CCC(C)(C)NC(=O)c1cc(-c2ccc(C)cc2)cc(-n2nnnc2C(C)C)c1` [Example 10, N-(2-Methylbutan-2-yl)-3-(4-methylphenyl)-5-(5-propan-2-yltetrazol-1-yl)-benzamide] are 104 °C and 230 nM.
`CCC(C)(C)NC(=O)c1cc(-c2ccc(C)c(F)c2)cc(-n2cnnn2)c1` [Example 5, 3-(3-Fluoro-4-methylphenyl)-N-(2-methylbutan-2-yl)-5-(tetrazol-1-yl)-benzamide] registered a melting point of 161 °C. Further, on human EAAT3, the Kb is 250 nM.
As to `CCC(C)(C)NC(=O)c1cc(-c2ccc(C(F)(F)F)cc2)cc(-n2nnnc2C(C)C)c1` [Example 46, N-(2-Methylbutan-2-yl)-3-(5-propan-2-yltetrazol-1-yl)-5-[4-(trifluoro-methyl)-phenyl]-benzamide], the melting point was 89 °C. Besides, on human EAAT3, the antagonist dissociation constant (Kb) is 190 nM.
In turn, `CCC(C)(C)NC(=O)c1cc(-c2ccc(Cl)cc2)cc(-n2nnnc2C(F)(F)F)c1` [Example 74, 3-(4-Chlorophenyl)-N-(2-methylbutan-2-yl)-5-[5-(trifluoromethyl)-tetrazol-1-yl]-benzamide] yielded a melting point of 185 °C. Also, at human EAAT3, the Kb is 180 nM.
Taken in the same sequence, the figures for `CC(C)(CO)NC(=O)c1cc(-c2ccc(Cl)cc2)cc(-n2nnnc2C(C)(C)C)c1` [Example 88, 3-(5-tert-Butyltetrazol-1-yl)-5-(4-chlorophenyl)-N-(1-hydroxy-2-methylpropan-2-yl)-benzamide] were 112 °C and 150 nM.
The corresponding values for `Cc1ccc(-c2cc(C(=O)NC(C)(C)C)cc(-n3nnnc3C)c2)cc1` [Example 23, N-tert-Butyl-3-(4-methylphenyl)-5-(5-methyltetrazol-1-yl)-benzamide] are 85 °C and 290 nM.
Regarding `CC(C)c1nnnn1-c1cc(C(=O)NC(C)(C)CO)cc(-c2ccc(F)cc2)c1` [Example 62, 3-(4-Fluorophenyl)-N-(1-hydroxy-2-methylpropan-2-yl)-5-(5-propan-2-yltetrazol-1-yl)-benzamide], the melting point is 86.5 °C. The Kb on human EAAT3 turned out to be 550 nM.
Taken in the same sequence, the figures for `CC(C)(C)NC(=O)c1cc(-c2ccc(Cl)c(F)c2)cc(-n2nnnc2C(C)(C)C)c1` [Example 105, N-tert-Butyl-3-(5-tert-butyltetrazol-1-yl)-5-(4-chloro-3-fluorophenyl)-benzamide] were 240.5 °C and 290 nM.
